From PubChem BioAssay (NCI) come the findings set out here.

Common to all, as to experiment: DTP human tumour cell line panel, 48 h
Assay [1] concerns OVCAR-4 ovarian.
For assay [2], the system named is SK-MEL-2 melanoma.
Assay [3] concerns NCI-H23 lung.
The test system of assay [4] is HCC-2998 colon.
The test system of assay [5] is NCI-H226 lung.
Assay [6] concerns OVCAR-5 ovarian.
Assay [7] deals with MDA-MB-231 breast.
For assay [8], the system named is HT29 colon.
Assay [9] has as its system SK-MEL-5 melanoma.
In assay [10] the test system is MALME-3M melanoma.

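96-well plates; 48 h exposure; 5 concentrations. Endpoints by linear interpolation between flanking doses. Not reached: highest tested concentration assigned. Here, GI50 denotes the concentration required for 50% inhibition of growth. TGI is the concentration that stops growth completely.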

A word on the GI50: it is the concentration giving 50% growth inhibition. The TGI is the concentration giving total growth inhibition. A low value points to more potent growth arrest.

`CCOCCc1c(O)nc(SC)[nH]c1=O`: the GI50 in assay [1], in assay [2], in [3], in assay [4], in assay [5] and in assay [6] was over 100 µM in each case. In addition, the GI50 in assay [7], in assay [8], in assay [9] and in assay [10] was over 100 µM each time. In addition, the TGI in [1], in [2], in assay [3], in assay [4], in [5] and in [6] was over 100 µM each time. Also, the TGI in [7], in assay [8], in assay [9] and in [10] was over 100 µM throughout.
In the case of `Cc1ccc(Cl)cc1Nc1nc(C(F)(F)F)ccc1C(=O)N/N=C/c1c(Cl)cccc1Cl`, the GI50 in assay [1] was 0.289 µM; in [2], 1.94 µM; in [3], 1.55 µM; in assay [4] it was 1.24 µM; in assay [5] it was 1.1 µM; in assay [6], 2.21 µM. The GI50 in [7] was 0.524 µM; in assay [8], 0.791 µM; in assay [9], 1.52 µM; in assay [10], 1.69 µM. For the same compound, the TGI came to 4.86 µM in assay [2]; 7.39 µM in assay [3]; 31.5 µM in assay [4]; 4.53 µM in assay [5]; 20.4 µM in assay [6]; 2.85 µM in assay [7]. Further, the TGI is over 100 µM in assay [8], 3.82 µM in assay [9] and 5.44 µM in assay [10].
Regarding `CC(C)(C)C(=O)OCOP(=O)(OCOC(=O)C(C)(C)C)C1CCCN(OC(=O)c2ccccc2)C1=O` (centres undefined), the GI50 in [1] is 3.56 µM; in assay [2], 1.99 µM; in [3], 1.51 µM; in assay [4], 0.99 µM; in assay [5], 1.34 µM; in assay [6] it was 4.1 µM. Further, the GI50 in assay [7] is 0.716 µM; in assay [8] it was 0.529 µM; in [9] it was 0.983 µM; in assay [10] it was 0.457 µM. The TGI in [1] was over 100 µM; in [2], 11.4 µM; in assay [3] it was 9.74 µM; in assay [4], 5.86 µM; in assay [5] it was 19.5 µM; in assay [6], over 100 µM. Further, the concentration for total growth inhibition (TGI) in assay [7] was 14.2 µM; in assay [8], 6.28 µM; in [9] it was 3.28 µM; in assay [10], 5.44 µM.
As for `COc1ccc(-c2cn(-c3ccc(Cl)cc3)c(=S)[nH]2)cc1OC`, the GI50 in assay [1] is 20.8 µM; in assay [2], over 100 µM; in assay [3], over 100 µM; in assay [4], 56.2 µM; in assay [5], 3.62 µM; in assay [6] it was 4.58 µM. The GI50 in assay [7] was 1.5 µM; in assay [8] it was 3.89 µM; in [9], 2.92 µM; in assay [10] it was 68.4 µM. For the same compound, the TGI in assay [1], in [2], in assay [3], in assay [4], in assay [5] and in [6] was over 100 µM throughout. The TGI was 87 µM in assay [7], over 100 µM in assay [8], over 100 µM in [9] and over 100 µM in assay [10].
In the case of `COc1ccc(S(=O)(=O)N2CCN(C(=O)OCc3ccccc3)CC2C(=O)NO)cc1` (centres undefined), the GI50 in assay [1], in [2], in assay [3], in assay [4], in assay [5] and in [6] was over 25 µM each time. Further, the GI50 in assay [7], in [8], in assay [9] and in assay [10] was over 25 µM in each case. The TGI in assay [1], in [2], in assay [3], in [4], in assay [5] and in assay [6] was over 25 µM each time. Further, the concentration for total growth inhibition (TGI) in assay [7], in assay [8], in [9] and in assay [10] was over 25 µM in each case.
